Measured values published in patent US9637469B2, “Pyridine derivative” (Teijin Pharma Limited, priority 2012, dated 2017).

Biological target: T1, human URAT1 (Homo sapiens, UniProt Q96S37)
T1 construct: Full-length cDNA of human URAT1 (hURAT1)
T1 sequence (Q96S37 1-553): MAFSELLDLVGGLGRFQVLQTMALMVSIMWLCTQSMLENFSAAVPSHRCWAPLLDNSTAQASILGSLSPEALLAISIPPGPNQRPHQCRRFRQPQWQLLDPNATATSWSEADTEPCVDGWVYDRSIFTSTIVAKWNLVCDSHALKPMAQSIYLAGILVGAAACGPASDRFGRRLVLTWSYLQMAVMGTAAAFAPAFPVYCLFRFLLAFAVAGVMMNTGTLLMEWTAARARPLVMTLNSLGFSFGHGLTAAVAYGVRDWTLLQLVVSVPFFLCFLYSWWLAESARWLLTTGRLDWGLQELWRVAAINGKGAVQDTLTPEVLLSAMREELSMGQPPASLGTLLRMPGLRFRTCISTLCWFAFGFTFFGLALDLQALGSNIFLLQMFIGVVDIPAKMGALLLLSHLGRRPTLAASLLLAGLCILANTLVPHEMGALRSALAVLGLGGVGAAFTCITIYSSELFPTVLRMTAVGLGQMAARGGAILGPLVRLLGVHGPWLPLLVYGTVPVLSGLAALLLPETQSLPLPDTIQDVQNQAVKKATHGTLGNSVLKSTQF
Test: Test for inhibition of uric acid transport using human URAT1-expressing cells;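 further: three stars up to 0.2 µM two stars 0.2-2 µM one star 2-20 µM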
Format: cell-based
Details: HEK 293 cells expressing human URAT1; 14C-labeled uric acid 25 μM; uptake 37° C. for 5 min
Summary of the method: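 HEK293 cells stably transfected with full-length hURAT1, preincubated 10 min at 37 °C in HBSS with NaCl replaced by Na gluconate. Uptake of 25 μM ¹⁴C-uric acid with compound ran 5 min at 37 °C, then scintillation counting. IC50 derived from % of DMSO-control URAT1-specific uptake.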

Structure (SMILES) | Inhibitory Activity (IC50 of uric acid transport inhibition)
Cc1nc(-c2cccnc2)n(Cc2sc(Cl)cc2Cl)c1C(=O)O [Compound A80, 1-((2,4-dichlorothiophen-5-yl)methyl)-4-methyl-2-(pyridin-3-yl)-1H-imidazole-5-carboxylic acid] | * *
Cc1nc(-c2cccnc2)n(Cc2cc(F)cc3ccsc23)c1C(=O)O [Compound A85, 1-((5-fluorobenzo[b]thiophen-7-yl)methyl)-4-methyl-2-(pyridin-3-yl)-1H-imidazole-5-carboxylic acid] | * * *
Cc1nc(-c2cccnc2)n(Cc2cc(F)cc(Cl)c2)c1C(=O)O [Compound A76, 1-(3-chloro-5-fluorobenzyl)-4-methyl-2-(pyridin-3-yl)-1H-imidazole-5-carboxylic acid] | * *
Cc1ccc2ccccc2c1Cn1c(C(=O)O)ccc1-c1cccnc1 [Compound B4, 1-((2-methylnaphthalen-1-yl)methyl)-2-(pyridin-3-yl)-1H-pyrrole-5-carboxylic acid] | * *
CC(C)c1nc(-c2cccnc2)n(Cc2csc3cccc(Cl)c23)c1C(=O)O [Compound A37, 1-((4-chlorobenzo[b]thiophen-3-yl)methyl)-4-isopropyl-2-(pyridin-3-yl)-1H-imidazole-5-carboxylic acid] | * * *
O=C(O)c1c(C2CC2)nc(-c2cccnc2)n1Cc1csc2ccccc12 [Compound A36, 1-(benzo[b]thiophen-3-ylmethyl)-4-cyclopropyl-2-(pyridin-3-yl)-1H-imidazole-5-carboxylic acid] | * *
Cc1nc(-c2cccnc2)n(Cc2ccccc2Br)c1C(=O)O [Compound A54, 1-(2-bromobenzyl)-4-methyl-2-(pyridin-3-yl)-1H-imidazole-5-carboxylic acid] | * *
COc1cccc(-c2nc(C)c(C(=O)O)n2Cc2cccc3ccccc23)n1 [Compound A240, 2-(6-methoxypyridin-2-yl)-4-methyl-1-(naphthalen-1-ylmethyl)-1H-imidazole-5-carboxylic acid] | * *

More lines, now with the values ahead:

Inhibitory Activity (IC50 of uric acid transport inhibition) | Structure (SMILES)
* * * | O=C(O)c1ccc(-c2cncc(Cl)c2)n1Cc1csc2cccc(Cl)c12 [Compound B18, 1-((4-chlorobenzo[b]thiophen-3-yl)methyl)-2-(5-chloropyridin-3-yl)-1H-pyrrole-5-carboxylic acid]
* * * | CCC(O)(CC)c1nc(-c2cncc(C)c2)n(Cc2cc(Cl)ccc2Cl)c1C(=O)O [Compound A217, 1-(2,5-dichlorobenzyl)-4-(3-hydroxypentan-3-yl)-2-(5-methylpyridin-3-yl)-1H-imidazole-5-carboxylic acid]
* * | Cc1cncc(-c2nc(C)c(C(=O)O)n2Cc2sc(Cl)cc2Cl)c1 [Compound A230, 1-((2,4-dichlorothiophen-5-yl)methyl)-4-methyl-2-(5-methylpyridin-3-yl)-1H-imidazole-5-carboxylic acid]
* * * | O=C(O)c1c(-c2ccccc2)nc(-c2cccnc2)n1Cc1cc(Cl)ccc1Cl [Compound A91, 1-(2,5-dichlorobenzyl)-4-phenyl-2-(pyridin-3-yl)-1H-imidazole-5-carboxylic acid]
* * | Cc1nc(-c2cccnc2F)n(Cc2cc(Cl)ccc2Cl)c1C(=O)O [Compound A160, 1-(2,5-dichlorobenzyl)-2-(2-fluoropyridin-3-yl)-4-methyl-1H-imidazole-5-carboxylic acid]
* * * | CCSc1nc(-c2cccnc2)n(Cc2cc(Cl)ccc2Cl)c1C(=O)O [Compound A105, 1-(2,5-dichlorobenzyl)-4-(ethylthio)-2-(pyridin-3-yl)-1H-imidazole-5-carboxylic acid]
* * | Cc1ccc(C)c(Cn2c(-c3cncc(F)c3)nc(C)c2C(=O)O)c1 [Compound A178, 1-(2,5-dimethylbenzyl)-2-(5-fluoropyridin-3-yl)-4-methyl-1H-imidazole-5-carboxylic acid]
* * * | CCCOc1cncc(-c2nc(C)c(C(=O)O)n2Cc2cc(Cl)ccc2Cl)c1 [Compound A185, 1-(2,5-dichlorobenzyl)-4-methyl-2-(5-propoxypyridin-3-yl)-1H-imidazole-5-carboxylic acid]
* * * | Cc1nc(-c2cncc(C3CC3)c2)n(Cc2cc(Cl)ccc2Cl)c1C(=O)O [Compound A168, 2-(5-cyclopropylpyridin-3-yl)-1-(2,5-dichlorobenzyl)-4-methyl-1H-imidazole-5-carboxylic acid]
* * * | CC(O)c1nc(-c2cncc(Cl)c2)n(Cc2cc(Cl)ccc2Cl)c1C(=O)O (stereo not drawn) [Compound A211, 2-(5-chloropyridin-3-yl)-1-(2,5-dichlorobenzyl)-4-(1-hydroxyethyl)-1H-imidazole-5-carboxylic acid]
* * * | Cc1ccc(Cl)c(Cn2c(-c3cccnc3)nc(C)c2C(=O)O)c1 [Compound A78, 1-(2-chloro-5-methylbenzyl)-4-methyl-2-(pyridin-3-yl)-1H-imidazole-5-carboxylic acid]
* * * | CS(=O)(=O)NC(=O)c1ccc(-c2cccnc2)n1Cc1cc(Cl)ccc1Cl [Compound B28, 1-(2,5-dichlorobenzyl)-N-(methylsulfonyl)-2-(pyridin-3-yl)-1H-pyrrole-5-carboxamide]
* * * | Clc1cncc(-c2ncc(-c3nnn[nH]3)n2Cc2cc(Cl)ccc2Cl)c1 [Compound A237, 3-chloro-5-(1-(2,5-dichlorobenzyl)-5-(1H-tetrazol-5-yl)-1H-imidazol-2-yl)pyridine]
* * | Cc1nc(-c2cncc(OCc3ccccc3)c2)n(Cc2cc(Cl)ccc2Cl)c1C(=O)O [Compound A190, 2-(5-(benzyloxy)pyridin-3-yl)-1-(2,5-dichlorobenzyl)-4-methyl-1H-imidazole-5-carboxylic acid]
* * | Cc1nc(-c2cncc(Cl)c2)n(Cc2sc(Cl)cc2Cl)c1C(=O)O [Compound A229, 2-(5-chloropyridin-3-yl)-1-((2,4-dichlorothiophen-5-yl)methyl)-4-methyl-1H-imidazole-5-carboxylic acid]
* * * | Cc1nc(-c2cncc(F)c2)n(Cc2cc(Cl)sc2Cl)c1C(=O)O [Compound A225, 1-((2,5-dichlorothiophen-3-yl)methyl)-2-(5-fluoropyridin-3-yl)-4-methyl-1H-imidazole-5-carboxylic acid]
* * * | Cc1nc(-c2cncc(-c3ccccc3)c2)n(Cc2cc(Cl)ccc2Cl)c1C(=O)O [Compound A176, 1-(2,5-dichlorobenzyl)-4-methyl-2-(5-phenylpyridin-3-yl)-1H-imidazole-5-carboxylic acid]
* * * | Cc1ccc(Cl)c(Cn2c(-c3cncc(Cl)c3)nc(C)c2C(=O)O)c1 [Compound A232, 1-(2-chloro-5-methylbenzyl)-2-(5-chloropyridin-3-yl)-4-methyl-1H-imidazole-5-carboxylic acid]

Same assay, conditions: HEK 293 cells expressing human URAT1; 14C-labeled uric acid 25 μM; uptake 37° C. for 5 min; read-out: Inhibitory Activity (IC50 of uric acid transport inhibition)

Structure (SMILES) | IC50 [µM]
O=C(O)c1cnc(-c2cccnc2)n1Cc1cccc2ccccc12 [Compound A12] | 2 to 20
Cc1ccc2ccccc2c1Cn1c(-c2cccnc2)nc(C)c1C(=O)O [Compound A4] | 2 to 20
Cc1cncc(-c2nc(C)c(C(=O)O)n2Cc2cccc3ccccc23)c1 [Compound A124] | 2 to 20
Cc1nc(-c2cccnc2)n(Cc2ccc(F)cc2Cl)c1C(=O)O [Compound A73] | 2 to 20
Cc1nc(-c2cccnc2)n(Cc2cccc(OC(F)(F)F)c2)c1C(=O)O [Compound A63] | 2 to 20
Cc1cccc2cccc(Cn3c(-c4cccnc4)nc(C(F)(F)F)c3C(=O)O)c12 [Compound A30] | 2 to 20
COc1cncc(-c2nc(C)c(C(=O)O)n2Cc2cccc3ccccc23)c1 [Compound A120] | 2 to 20
Cc1ccc2ccccc2c1Cn1c(-c2ccccn2)nc(C)c1C(=O)O [Compound A241] | 2 to 20
Cc1nc(-c2cccnc2)n(Cc2ccc(F)cc2)c1C(=O)O [Compound A50] | 2 to 20

Results, then the molecule that gave them:

IC50 [µM] | Structure (SMILES)
2 to 20 | Cc1nc(-c2cncc(OCCO)c2)n(Cc2cc(Cl)ccc2Cl)c1C(=O)O [Compound A186]
2 to 20 | CC(C)(Sc1cnc(-c2cccnc2)n1Cc1cc(Cl)ccc1Cl)C(=O)O [Compound A261]
2 to 20 | O=C(O)c1c(CN2CCC(O)CC2)nc(-c2cncc(Cl)c2)n1Cc1cc(Cl)ccc1Cl [Compound A198]
2 to 20 | NCc1nc(-c2cncc(Cl)c2)n(Cc2cc(Cl)ccc2Cl)c1C(=O)O [Compound A201]
